Reference: US20230272055A1, “ANTI-MUTANT CALRETICULIN (CALR) ANTIBODIES AND USES THEREOF” (Incyte Corporation, priority 2021, published 2023)

Test system: Ba/F3-TPOR/mutCALR type 1 engineered cells
Experiment: Cell proliferation with antibody and/or ruxolitinib, mutCALR Type 1
Type: cell-based
Settings: ruxolitinib alone at 50 nM; 72 hours; dotted line of FIG. 10 (Type 1 and Type 2 panels); read-out: inhibition of the level of oncogenic cell proliferation
Protocol: To test the ability of anti-mutCALR antibodies to potentiate the therapeutic response of the JAK1/2 inhibitor ruxolitinib, Ba/F3 cells were engineered to express MPL+mutCALR Type 1 (52 bp deletion) or MPL+mutCALR Type 2 (5 bp insertion) as described above. Cells were plated at 5,000 cells per well in RPMI 1640+2% FBS, treated with 50 nM of ruxolitinib and/or anti-mutCALR antibodies. Cells were incubated for 72 hours followed by assessment of cell viability using the CellTiter-Glo Luminescent Cell Viability Assay (Promega, Madison, Wis.) and Top Count (Perkin Elmer, Boston, Mass.) or Pherastar (BMG Labtech, Ortenberg, Germany) for luminescence quantification. Ruxolitinib used at a concentration of 50 nM inhibited the level of oncogenic cell proliferation by approximately 20% (dotted line).

Compound: N#CC[C@H](C1CCCC1)n1cc(-c2ncnc3[nH]ccc23)cn1 [Ruxolitinib, ruxolitinib, reference compound]
- inhibition at 0.05 µM: ~20%
